Laboratory results taken from PubChem BioAssay (NCI).
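A five-concentration, 48-hour dose response in 96-well plates underlies each endpoint, interpolated linearly between surrounding concentrations. Abbreviation: GI50, concentration required for 50% inhibition of growth. The concentration for full growth arrest is given as TGI.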

Legend:
Assay in all cases: NCI-60 cell line screen, 48 h
A549 NSCLC = tested on: A549 NSCLC
T-47D breast = tested on: T-47D breast
EKVX NSCLC = tested on: EKVX NSCLC
SK-MEL-2 melanoma = tested on: SK-MEL-2 melanoma
786-0 renal = tested on: 786-0 renal
HL-60(TB) leukemia = tested on: HL-60(TB) leukemia
SF-539 CNS = tested on: SF-539 CNS
UACC-257 melanoma = tested on: UACC-257 melanoma
TK-10 renal = tested on: TK-10 renal
DU-145 prostate = tested on: DU-145 prostate
HOP-62 NSCLC = tested on: HOP-62 NSCLC
NCI-H226 lung = tested on: NCI-H226 lung
SR leukemia = tested on: SR leukemia
BT-549 breast = tested on: BT-549 breast
MCF7 breast = tested on: MCF7 breast
SF-295 CNS = tested on: SF-295 CNS
HOP-92 NSCLC = tested on: HOP-92 NSCLC
SF-268 CNS = tested on: SF-268 CNS
MOLT-4 leukemia = tested on: MOLT-4 leukemia
U251 CNS = tested on: U251 CNS
M14 melanoma = tested on: M14 melanoma
ACHN renal = tested on: ACHN renal
K-562 leukemia = tested on: K-562 leukemia
UACC-62 melanoma = tested on: UACC-62 melanoma
NCI-H23 lung = tested on: NCI-H23 lung
MALME-3M melanoma = tested on: MALME-3M melanoma
SN12C renal = tested on: SN12C renal
NCI/ADR-RES ovarian = tested on: NCI/ADR-RES ovarian
HCT-116 colon = tested on: HCT-116 colon
HT29 colon = tested on: HT29 colon
SNB-19 CNS = tested on: SNB-19 CNS
PC-3 prostate = tested on: PC-3 prostate
SK-OV-3 ovarian = tested on: SK-OV-3 ovarian
OVCAR-8 ovarian = tested on: OVCAR-8 ovarian
OVCAR-5 ovarian = tested on: OVCAR-5 ovarian
CCRF-CEM leukemia = tested on: CCRF-CEM leukemia
HCT-15 colon = tested on: HCT-15 colon
A498 renal = tested on: A498 renal
MDA-MB-231 breast = tested on: MDA-MB-231 breast
KM12 colon = tested on: KM12 colon
SW-620 colon = tested on: SW-620 colon
MDA-MB-435 = tested on: MDA-MB-435
NCI-H522 lung = tested on: NCI-H522 lung
HS 578T breast = tested on: HS 578T breast
RXF 393 renal = tested on: RXF 393 renal
SK-MEL-28 melanoma = tested on: SK-MEL-28 melanoma
SNB-75 CNS = tested on: SNB-75 CNS
RPMI-8226 leukemia = tested on: RPMI-8226 leukemia
NCI-H460 lung = tested on: NCI-H460 lung
COLO 205 colon = tested on: COLO 205 colon
LOX IMVI melanoma = tested on: LOX IMVI melanoma
UO-31 renal = tested on: UO-31 renal
SK-MEL-5 melanoma = tested on: SK-MEL-5 melanoma
HCC-2998 colon = tested on: HCC-2998 colon
IGROV1 ovarian = tested on: IGROV1 ovarian
OVCAR-4 ovarian = tested on: OVCAR-4 ovarian
CAKI-1 renal = tested on: CAKI-1 renal

COc1cc(OC)c(/C=C/S(=O)(=O)Cc2ccc(OC)c(NC(=O)CCC(=O)NO)c2)c(OC)c1
GI50 (A549 NSCLC): 39.7 nM
TGI (A549 NSCLC): > 100000 nM
GI50 (T-47D breast): 30600 nM
TGI (T-47D breast): > 100000 nM
GI50 (EKVX NSCLC): 57.3 nM
TGI (EKVX NSCLC): > 100000 nM
TGI (SK-MEL-2 melanoma): > 37200 nM
GI50 (786-0 renal): 43.6 nM
TGI (786-0 renal): > 100000 nM
GI50 (HL-60(TB) leukemia): 26.2 nM
TGI (HL-60(TB) leukemia): 88 nM
GI50 (SF-539 CNS): 26.1 nM
TGI (SF-539 CNS): 432 nM
GI50 (UACC-257 melanoma): > 100000 nM
TGI (UACC-257 melanoma): > 100000 nM
GI50 (TK-10 renal): > 100000 nM
TGI (TK-10 renal): > 100000 nM
GI50 (DU-145 prostate): 45.1 nM
TGI (DU-145 prostate): > 100000 nM
GI50 (HOP-62 NSCLC): 67.5 nM
TGI (HOP-62 NSCLC): > 100000 nM
GI50 (NCI-H226 lung): 99.5 nM
TGI (NCI-H226 lung): > 100000 nM
GI50 (SR leukemia): 20.3 nM
TGI (SR leukemia): > 100000 nM
GI50 (BT-549 breast): 24.4 nM
TGI (BT-549 breast): 72.4 nM
GI50 (MCF7 breast): 25 nM
TGI (MCF7 breast): > 100000 nM
GI50 (SF-295 CNS): 14.4 nM
TGI (SF-295 CNS): > 100000 nM
GI50 (HOP-92 NSCLC): 251 nM
TGI (HOP-92 NSCLC): > 100000 nM
GI50 (SF-268 CNS): 102 nM
TGI (SF-268 CNS): > 100000 nM
GI50 (MOLT-4 leukemia): 46.7 nM
TGI (MOLT-4 leukemia): > 100000 nM
GI50 (U251 CNS): 38.7 nM
TGI (U251 CNS): > 100000 nM
GI50 (M14 melanoma): 18.8 nM
TGI (M14 melanoma): > 100000 nM
GI50 (ACHN renal): 33.2 nM
TGI (ACHN renal): > 100000 nM
GI50 (K-562 leukemia): < 15.4 nM
TGI (K-562 leukemia): > 100000 nM
GI50 (UACC-62 melanoma): 19.8 nM
TGI (UACC-62 melanoma): > 100000 nM
GI50 (NCI-H23 lung): 49.9 nM
TGI (NCI-H23 lung): > 100000 nM
GI50 (MALME-3M melanoma): > 100000 nM
TGI (MALME-3M melanoma): > 100000 nM
GI50 (SN12C renal): 61.8 nM
TGI (SN12C renal): > 100000 nM
GI50 (NCI/ADR-RES ovarian): < 15.8 nM
TGI (NCI/ADR-RES ovarian): > 100000 nM
GI50 (HCT-116 colon): 27.8 nM
TGI (HCT-116 colon): > 100000 nM
GI50 (HT29 colon): 38.7 nM
TGI (HT29 colon): > 100000 nM
GI50 (SNB-19 CNS): 46.3 nM
TGI (SNB-19 CNS): > 100000 nM
GI50 (PC-3 prostate): 31.1 nM
TGI (PC-3 prostate): > 100000 nM
GI50 (SK-OV-3 ovarian): 1170 nM
TGI (SK-OV-3 ovarian): > 100000 nM
GI50 (OVCAR-8 ovarian): 41.2 nM
TGI (OVCAR-8 ovarian): > 100000 nM
GI50 (OVCAR-5 ovarian): 55 nM
TGI (OVCAR-5 ovarian): > 100000 nM
GI50 (CCRF-CEM leukemia): 35.3 nM
TGI (CCRF-CEM leukemia): > 100000 nM
GI50 (HCT-15 colon): 22.5 nM
TGI (HCT-15 colon): > 100000 nM
GI50 (A498 renal): < 13.4 nM
TGI (A498 renal): 79.4 nM
GI50 (MDA-MB-231 breast): 47.8 nM
TGI (MDA-MB-231 breast): > 100000 nM
GI50 (KM12 colon): 30.7 nM
TGI (KM12 colon): > 100000 nM
GI50 (SW-620 colon): 37.7 nM
TGI (SW-620 colon): > 100000 nM
TGI (MDA-MB-435): 31.5 nM
GI50 (NCI-H522 lung): < 12.6 nM
GI50 (HS 578T breast): 23 nM
TGI (HS 578T breast): > 100000 nM
GI50 (RXF 393 renal): 21.4 nM
TGI (RXF 393 renal): > 100000 nM
GI50 (SK-MEL-28 melanoma): > 84500 nM
TGI (SK-MEL-28 melanoma): > 100000 nM
GI50 (SNB-75 CNS): 18.4 nM
TGI (SNB-75 CNS): 3680 nM
GI50 (RPMI-8226 leukemia): 45.2 nM
TGI (RPMI-8226 leukemia): > 100000 nM
GI50 (NCI-H460 lung): 34 nM
TGI (NCI-H460 lung): > 100000 nM
GI50 (COLO 205 colon): 32.9 nM
GI50 (LOX IMVI melanoma): 29.6 nM
TGI (LOX IMVI melanoma): > 100000 nM
GI50 (UO-31 renal): 107 nM
TGI (UO-31 renal): > 100000 nM
GI50 (SK-MEL-5 melanoma): 29.9 nM
TGI (SK-MEL-5 melanoma): 256 nM
GI50 (HCC-2998 colon): 34.5 nM
TGI (HCC-2998 colon): > 100000 nM
GI50 (IGROV1 ovarian): 38.6 nM
TGI (IGROV1 ovarian): > 100000 nM
TGI (OVCAR-4 ovarian): > 100000 nM
GI50 (CAKI-1 renal): < 15.9 nM
TGI (CAKI-1 renal): > 100000 nM
